Article PMC6272674, “Selected Compounds Structurally Related to Acyclic Sesquiterpenoids and Their Antibacterial and Cytotoxic Activity” (Molecules, 2015)
Like-named read-outs stand apart in the source and are kept apart here.

Experiments:
[1] = MTT viability, MEWO; assay type: cell-based, human; settings: human, MEWO malignant melanoma cells, 1000 µM (IC50 exceeded 1000 µM), read-out: viability ± standard deviation at 1000 µM
Experimental: (§1) Cell lines and in vitro culture conditions: The human promyelocytic leukaemia cell line HL-60 was obtained from the Centre of Molecular and Macromolecular Biology in Łódź, Poland and was cultured in RPMI 1640 medium with 20% heat-inactivated fetal bovine serum (FBS). To reduce spontaneous differentiation, the cells were never allowed to exceed a concentration of 1.0 × 10^6 cells/mL. The human keratinocyte cell line HaCaT was obtained from Cell Lines Service, Germany (CLS) and cultured in DMEM medium with 10% FBS. Human colorectal adenocarcinoma HT29 and normal epithelial IEC-6 cell lines (from ATCC) were cultured in DMEM medium with 10% FBS. The human skin melanoma cell line MEWO (from CLS) was cultured in DMEM:F12 supplemented with 2 mM L-glutamine and 10% FBS. Human fibroblasts from gingiva isolated from original tissue, HFIB-G, (from Provitro) were cultured in Quantum 333 (from Immunique). The media were supplemented with 100 U/mL penicillin and 100 µg/mL streptomycin; all media components were obtained from Life Technologies. The adherent cell lines used in the studies were seeded on microplates before they exceeded 80% of confluence. Cells were cultured at 37 °C in 5% CO2 air atmosphere/95% air atmosphere.
(§2) Cytotoxic activity: The cells (the density for HL-60 was 0.5 × 10^4 cells/100 µL, otherwise it was 1 × 10^4 cells/100 µL) were plated into each well of 96-well microtiter plates and, after their attachment to the plate surface, treated with 10 µL of the indicated concentrations of compounds for 24 h. Viability was determined by MTT assay following the treatment. MTT (3-[4.5-dimethylthiazol-2-yl]-2.5-diphenyltetrazolium bromide; Sigma, St. Louis, MO, USA) solution was added to each well and incubated for another 4 h. The resulting MTT-formazan product was dissolved by the addition of lysis buffer (20% SDS and 50% DMF). The amount of formazan was determined by measuring absorbance at 570 nm with a Synergy 2 microplate reader (BioTek, Winooski, VT, USA) operated by the Gen5 program. The experiments were conducted three times with five replications. The results are expressed as an optical density ratio of the treatment to control. All data are presented as means ± SD.

[2] = MTT viability, HT29; assay type: cell-based, human; settings: human, HT29 colorectal adenocarcinoma cells, 1000 µM (IC50 exceeded 1000 µM), read-out: viability ± standard deviation at 1000 µM
Experimental: as §1, §2

[3] = MTT viability, HL-60; assay type: cell-based, human; settings: human, HL-60 promyelocytic leukaemia cells, HL-60, MTT, 1000 µM (IC50 exceeded 1000 µM), read-out: viability ± standard deviation at 1000 µM
Experimental: as §1, §2

[4] = MTT viability, HFIG; assay type: cell-based, human; settings: human, HFIG (HFIB-G) gingival fibroblasts, 1000 µM (IC50 exceeded 1000 µM), read-out: viability ± standard deviation at 1000 µM
Experimental: as §1, §2

[5] = MTT viability, HaCaT; assay type: cell-based, human; settings: human, HaCaT keratinocytes, 1000 µM (IC50 exceeded 1000 µM), read-out: viability ± standard deviation at 1000 µM
Experimental: as §1, §2

[6] = MTT viability, IEC6; assay type: cell-based; settings: rat, IEC-6 small intestine epithelial cells, 1000 µM (IC50 exceeded 1000 µM), read-out: viability ± standard deviation at 1000 µM
Experimental: as §1, §2

[7] = system: Staphylococcus aureus ATCC 43300; design: method as in doi:10.1002/ffj.3238; settings: data presented by the authors before; cited from earlier work
[8] = system: Enterococcus faecalis ATCC 51299; design: method as in doi:10.1002/ffj.3238; settings: data presented by the authors before; cited from earlier work
[9] = system: Enterococcus faecium ATCC 35667; design: method as in doi:10.1002/ffj.3238; settings: data presented by the authors before; cited from earlier work
[10] = system: Escherichia coli ATCC 25922; design: method as in doi:10.1002/ffj.3238; settings: data presented by the authors before; cited from earlier work
[11] = system: Klebsiella pneumoniae ATCC 700603; design: method as in doi:10.1002/ffj.3238; settings: data presented by the authors before; cited from earlier work
[12] = system: Acinetobacter baumannii ATCC 19606; design: method as in doi:10.1002/ffj.3238; settings: data presented by the authors before; cited from earlier work
[13] = system: Promyelocytic Leukaemia HL-60; assay: MTT viability, HL-60; assay type: cell-based, human; settings: HL-60, MTT, range 10–1000 µM, read-out: half maximal inhibitory concentration (IC50), interpolated
Experimental: as §1, §2

SMILES | IC50 ([13]; Homo sapiens, HL-60, 24 h) | IC50 ([13]; 24 h) | viability at 24 h, 1000 µM [1] | viability at 24 h, 1000 µM [2] | viability at 24 h, 1000 µM [3] | viability at 24 h, 1000 µM [4] | viability at 24 h, 1000 µM [5] | viability at 24 h, 1000 µM [6] | Minimum Inhibitory Concentrations MIC [7] | Minimum Inhibitory Concentrations MIC [8] | Minimum Inhibitory Concentrations MIC [9] | Minimum Inhibitory Concentrations MIC [10] | Minimum Inhibitory Concentrations MIC [11] | Minimum Inhibitory Concentrations MIC [12]
CC(=O)CCC=CC(C)CCC=C(C)C (stereo not shown) [Compound 7] |  |  | 99% | 98% | 67% | 92% | 101% | 82% | 26 µg/mL | 16 µg/mL | 18 µg/mL | 16 µg/mL | 16 µg/mL | 14 µg/mL
CC(=O)CCC=C(C)C(C)CC(C)CCC=C(C)C (stereo not shown) [Compound 11] |  |  | 112% | 92% | 59% | 102% | 100% | 81% | 26 µg/mL | 22 µg/mL | 18 µg/mL | 28 µg/mL | 28 µg/mL | 14 µg/mL
CC(=O)CCC=C(C)CCC(C)CCC=C(C)C (stereo not shown) [Compound 10] |  |  | 93% | 103% | 62% | 98% | 112% | 78% | 46 µg/mL | 26 µg/mL | 18 µg/mL | 32 µg/mL | 18 µg/mL | 16 µg/mL

Further lines, with some results ahead:

IC50 ([13]; Homo sapiens, HL-60, 24 h) | IC50 ([13]; 24 h) | SMILES | viability at 24 h, 1000 µM [1] | viability at 24 h, 1000 µM [2] | viability at 24 h, 1000 µM [3] | viability at 24 h, 1000 µM [4] | viability at 24 h, 1000 µM [5] | viability at 24 h, 1000 µM [6] | Minimum Inhibitory Concentrations MIC [7] | Minimum Inhibitory Concentrations MIC [8] | Minimum Inhibitory Concentrations MIC [9] | Minimum Inhibitory Concentrations MIC [10] | Minimum Inhibitory Concentrations MIC [11] | Minimum Inhibitory Concentrations MIC [12]
~295 µM |  | CC(=O)CCC=C(C)CCC=C(C)C [Geranyl acetone (1), geranyl acetone, reference compound] | 93% | 98% |  | 82% | 89% | 79% | 48 µg/mL | 36 µg/mL | 28 µg/mL | 26 µg/mL | 18 µg/mL | 18 µg/mL
750 µM |  | C=CC(C)(O)CCC=C(C)C(C)CCCC(C)C (stereo not shown) [Compound 14] | 99% | 112% |  | 99% | 106% | 65% | 48 µg/mL | 38 µg/mL | 36 µg/mL | 38 µg/mL | 18 µg/mL | 28 µg/mL
~1000 µM | 950 µM | C=CC(C)(O)CCC(C)CCC=C(C)C (stereo not shown) [Compound 16] | 100% | 102% |  | 106% | 89% | 113% | 48 µg/mL | 38 µg/mL | 36 µg/mL | 32 µg/mL | 24 µg/mL | 22 µg/mL
500 µM |  | C=CC(C)(O)CCC=C(C)C(C)CCC=C(C)C (stereo not shown) [Compound 12] | 97% | 97% |  | 110% | 101% | 73% | 48 µg/mL | 46 µg/mL | 42 µg/mL | 40 µg/mL | 28 µg/mL | 26 µg/mL
